{"source": "patent US20230255943A1", "about": "“MMP-9 AND MMP-12 INHIBITION FOR TREATING SPINAL CORD INJURY OR RELATED INJURY TO NEUROLOGICAL TISSUE” (The University of Birmingham, priority 2020, published 2023)", "key": {"[1]": {"system": "mice with DC crush injury", "assay": "Electrophysiology: compound action potentials (CAP) across DC lesion in mice", "format": "in vivo, mouse", "procedure": "Compound action potentials (CAP) were recorded at 6 w weeks after DC injury and treatment, as described previously—for example B. C. Hains, C. Y. Saab, A. C. Lo, S. G. Waxman, Sodium channel blockade with phenytoin protects spinal cord axons, enhances axonal conduction, and improves functional motor recovery after contusion SCI. Exp Neurol 188, 365-377 (2004).\n(§1) Briefly, the experimenter was masked to the treatment status of the animals and the CAP amplitude was calculated between the negative deflection after the stimulus artifact and the next peak of the wave. CAP area was also calculated by rectifying the CAP component (full-wave rectification) and measuring its area. To confirm our recordings and that a CAP could not be recorded, the dorsal half of the spinal cord was transected after each experiment between the stimulating and recording electrodes."}, "[2]": {"system": "mice with DC crush injury", "assay": "CSF biomarkers of SCI (S100β, NSE, GFAP, pNF-H, NF-L)", "format": "in vivo, mouse", "details": "3 d after injury"}, "[3]": {"system": "gelatinase enzyme activity", "assay": "In situ zymography of DC-injured spinal cord sections", "format": "in vivo, mouse", "details": "oral and intrathecally-administered", "procedure": "Animals were killed by CO2 overdose intracardially perfused with warm PBS and unfixed tissues were harvested. […] In situ zymography was performed as described previously (Z. Ahmed, R. G. Dent, W. E. Leadbeater, C. Smith, M. Berry, A. Logan, Matrix metalloproteases: degradation of the inhibitory environment of the transected optic nerve and the scar by regenerating axons. Mol Cell Neurosci 28, 64-78 (2005)).\nBriefly, 15 μm-thick unfixed frozen longitudinal sections of the spinal cord were cut on a cryostat and incubated at 25° C., for 24 h in 50 mM Tris, pH 7.4, 150 mM NaCl, 5 mM CaCl2, 0.2 mM sodium azide and 40 ug/ml fluorescein conjugated DQ™ gelatin (Molecular Probes). Upon proteolysis, the highly fluoresceinated gelatin residues became separated and fluorescence resulted. Control sections were incubated either without DQ™ gelatin or incubated with 50 μM 1,10-phenanthroline (Sigma, Poole, UK) to block MMP activation. […] After final washes in PBS, sections were mounted in Vectashield with DAPI (Vector Laboratories, Loughborough, UK) and viewed with a Zeiss Axioplan 2 fluorescence microscope, equipped with an AxioCam HRc and running Axiovision software (Zeiss, Hertfordshire, UK)."}, "[4]": {"system": "IL-1β, TNF-α and IL-6", "assay": "Proinflammatory pain cytokines after DC injury in rats", "format": "in vivo", "details": "rat DC injury, oral", "procedure": "(§2) The efficacy of oral AZD3342 in the DC injury model in adult Sprague-Dawley rat was also assessed. Animals were divided into 6 groups: (1), Sham (control); (2), DC crush injury+Vehicle; (3), DC crush injury+15 mg/kg AZD3342; (4), DC crush injury+75 mg/kg […]; (5), DC crush injury+375 mg/kg AZD3342; and (6), DC crush injury+Melatonin. Animals were dosed twice daily with oral AZD3342 or vehicle with the experimenters masked to the treatment conditions. These experiments were performed with n=6 rats/group and repeated on 2-3 independent occasions (total n=12-18 rats/group/test).\nThe lesion site+5 mm either side (DC and CC SCI, n=6 mice/rats/group, 2 independent repeats (total n=12 mice/rats/group)) was dissected and rapidly frozen in liquid N2 and stored at −80° C. until required. […] The levels of mRNA of MMP-9, MMP-12, IL-1β, TNF-α and IL-6 were determined using pre-validated mouse primer sequences from complimentary DNA prepared from extracted mRNA and qRT-PCR was performed using a LightCycler PCR machine (Roche, Burgess Hill, UK) (M. L. Read, S. Mir, R. Spice, R. J. Seabright, E. L. Suggate, Z. Ahmed, M. Berry, A. Logan, Profiling RNA interference (RNAi)-mediated toxicity in neural cultures for effective short interfering RNA design. J Gene Med 11, 523-534 (2009)). […]"}, "[5]": {"system": "rats with DC crush injury", "assay": "Ladder crossing (locomotor function) in rat DC model", "format": "in vivo", "details": "over 6 weeks", "procedure": "as §2\nFunctional testing after DC lesion and treatment was carried out as described previously (N. D. Fagoe, C. L. Attwell, R. Eggers, L. Tuinenbreijer, D. Kouwenhoven, J. Verhaagen, M. R. Mason, Evaluation of Five Tests for Sensitivity to Functional Deficits following Cervical or Thoracic Dorsal Column Transection in the Rat. PLoS One 11, e0150141 (2016)). […]\nHorizontal ladder test: This tests the animals locomotor function and is performed on a 0.9-meter-long horizontal ladder with a diameter of 15.5 cm and randomly adjusted rungs with variable gaps of 3.5-5.0 cm. Animals were assessed traversing the ladder and the left and right rear paw slips were recorded along with the total number of steps and the mean error rate as: the number of slips/total number of steps."}, "[6]": {"system": "rats with DC crush injury", "assay": "CAP traces after DC injury in rats", "format": "in vivo", "details": "rat DC injury, 6 weeks", "procedure": "as §2\nCompound action potentials (CAP) were recorded at 6 w weeks after DC injury and treatment, as described previously—for example B. C. Hains, C. Y. Saab, A. C. […]\nas §1"}, "[7]": {"system": "mice with DC crush injury", "assay": "Spinal cord water content (oedema) after DC crush injury in mice", "format": "in vivo, mouse", "details": "IP, twice daily"}}}
{"smiles": "C[C@]1(CS(=O)(=O)N2CC=C(C#Cc3cnc(C4CC4)nc3)CC2)NC(=O)NC1=O", "note": "[AZD1236]", "values": [{"measurement": "dorsum cord potentials, CAP amplitudes, CAP areas, 24-h delayed treatment", "setting": "[1]; optimal doses, 24 h delay vs immediate", "result": "equally as effective as immediate delivery"}, {"measurement": "CAP area relative to Sham-treated controls", "setting": "[1]; oral", "result": 80, "unit": "%"}, {"measurement": "CAP wave", "setting": "[1]; oral 200 mg/kg, 6 weeks after DC injury", "result": "restored a significant CAP wave"}, {"measurement": "mean CAP amplitude", "setting": "[1]; oral, all stimulation intensities", "result": "significantly larger CAP amplitudes"}, {"measurement": "CAP area", "setting": "[1]; oral, sham 0.65±0.02, DC+vehicle 0.06±0.02", "result": "0.52±0.09", "unit": "mV×ms"}, {"measurement": "levels of S100β, NSE, GFAP, pNF-H and NF-L in CSF", "setting": "[2]", "result": "significantly attenuated all of these biomarkers to near sham-control levels"}, {"measurement": "DC injury-induced gelatinase activity adjacent to the lesion site", "setting": "[3]", "result": "completely suppressed"}]}
{"smiles": "C[C@]1(CS(=O)(=O)N2CCC(Oc3ccc(Cl)cn3)CC2)NC(=O)NC1=O", "note": "[AZD3342, (5S)-5-[4-(5-chloro-pyridin-2-yloxy)-piperidine-1-sulfonylmethyl]-5-methylimidazolidine-2,4-dione]", "values": [{"measurement": "expression of proinflammatory pain cytokines", "setting": "[4]", "result": "significantly suppressed"}, {"measurement": "locomotor function (ladder crossing)", "setting": "[5]", "result": "significantly improved"}, {"measurement": "electrophysiological CAP traces", "setting": "[6]", "result": "significantly improved"}]}
{"smiles": "CCN(CC)Cc1cc(C)c(N(Cc2ccccc2)S(=O)(=O)c2ccc(OC)cc2)c(C(=O)NO)c1", "note": "[MMP-9 Inhibitor I, reference compound]", "values": [{"measurement": "SCI-induced oedema with tool inhibitors singly or in combination (FIG. 3D)", "setting": "[7]", "result": "suboptimal therapeutic benefits"}]}
